Test results published in PubChem BioAssay (NCI).
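48-hour exposure; five concentrations; linearly interpolated endpoints. GI50 is the concentration that inhibits growth by half. TGI is the concentration that stops growth completely.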

Tests used:
Assay in all cases: DTP human tumour cell line panel, 48 h
HL-60(TB) leukemia = tested on: HL-60(TB) leukemia
HS 578T breast = tested on: HS 578T breast
MCF7 breast = tested on: MCF7 breast
UACC-62 melanoma = tested on: UACC-62 melanoma
MDA-MB-435 = tested on: MDA-MB-435
ACHN renal = tested on: ACHN renal
CAKI-1 renal = tested on: CAKI-1 renal
OVCAR-8 ovarian = tested on: OVCAR-8 ovarian
HT29 colon = tested on: HT29 colon
HCT-15 colon = tested on: HCT-15 colon
OVCAR-4 ovarian = tested on: OVCAR-4 ovarian
CCRF-CEM leukemia = tested on: CCRF-CEM leukemia
OVCAR-5 ovarian = tested on: OVCAR-5 ovarian
SK-MEL-5 melanoma = tested on: SK-MEL-5 melanoma
RPMI-8226 leukemia = tested on: RPMI-8226 leukemia
PC-3 prostate = tested on: PC-3 prostate
HCT-116 colon = tested on: HCT-116 colon
SR leukemia = tested on: SR leukemia
U251 CNS = tested on: U251 CNS
MDA-MB-231 breast = tested on: MDA-MB-231 breast
786-0 renal = tested on: 786-0 renal
NCI-H23 lung = tested on: NCI-H23 lung
SW-620 colon = tested on: SW-620 colon
NCI-H226 lung = tested on: NCI-H226 lung
SNB-75 CNS = tested on: SNB-75 CNS
SF-539 CNS = tested on: SF-539 CNS
EKVX NSCLC = tested on: EKVX NSCLC
OVCAR-3 ovarian = tested on: OVCAR-3 ovarian
HOP-92 NSCLC = tested on: HOP-92 NSCLC
NCI-H460 lung = tested on: NCI-H460 lung
NCI/ADR-RES ovarian = tested on: NCI/ADR-RES ovarian
SNB-19 CNS = tested on: SNB-19 CNS
KM12 colon = tested on: KM12 colon
SK-MEL-2 melanoma = tested on: SK-MEL-2 melanoma
COLO 205 colon = tested on: COLO 205 colon
M14 melanoma = tested on: M14 melanoma
HCC-2998 colon = tested on: HCC-2998 colon
UO-31 renal = tested on: UO-31 renal
IGROV1 ovarian = tested on: IGROV1 ovarian
BT-549 breast = tested on: BT-549 breast
DU-145 prostate = tested on: DU-145 prostate
MOLT-4 leukemia = tested on: MOLT-4 leukemia
SF-295 CNS = tested on: SF-295 CNS
NCI-H522 lung = tested on: NCI-H522 lung
RXF 393 renal = tested on: RXF 393 renal
A549 NSCLC = tested on: A549 NSCLC
A498 renal = tested on: A498 renal
SN12C renal = tested on: SN12C renal
TK-10 renal = tested on: TK-10 renal
MALME-3M melanoma = tested on: MALME-3M melanoma
UACC-257 melanoma = tested on: UACC-257 melanoma
SF-268 CNS = tested on: SF-268 CNS
T-47D breast = tested on: T-47D breast
HOP-62 NSCLC = tested on: HOP-62 NSCLC
SK-MEL-28 melanoma = tested on: SK-MEL-28 melanoma
LOX IMVI melanoma = tested on: LOX IMVI melanoma
SK-OV-3 ovarian = tested on: SK-OV-3 ovarian

CCC(=C/[C@H](C)C/C=C/C(C)=C/[C@@H](C)C(=O)[C@@H](C)[C@H](O)[C@@H](C)CC)/C=C/[C@@H]1OC(=O)C=C[C@@H]1C
GI50 (HL-60(TB) leukemia): < 5 nM | TGI (HL-60(TB) leukemia): < 5 nM | GI50 (HS 578T breast): < 5 nM | TGI (HS 578T breast): 2450 nM | GI50 (MCF7 breast): < 5 nM | TGI (MCF7 breast): 158 nM | GI50 (UACC-62 melanoma): < 5 nM | TGI (UACC-62 melanoma): 243 nM | GI50 (MDA-MB-435): < 5 nM | TGI (MDA-MB-435): < 5 nM | GI50 (ACHN renal): < 5 nM | TGI (ACHN renal): 6290 nM | GI50 (CAKI-1 renal): < 5 nM | TGI (CAKI-1 renal): 8530 nM | GI50 (OVCAR-8 ovarian): < 5 nM | TGI (OVCAR-8 ovarian): 6160 nM | GI50 (HT29 colon): < 5 nM | TGI (HT29 colon): 5310 nM | GI50 (HCT-15 colon): < 5 nM | TGI (HCT-15 colon): 409 nM | GI50 (OVCAR-4 ovarian): < 5 nM | TGI (OVCAR-4 ovarian): 6660 nM | GI50 (CCRF-CEM leukemia): < 5 nM | TGI (CCRF-CEM leukemia): 1800 nM | GI50 (OVCAR-5 ovarian): < 5 nM | TGI (OVCAR-5 ovarian): 4740 nM | GI50 (SK-MEL-5 melanoma): < 5 nM | TGI (SK-MEL-5 melanoma): < 5 nM | GI50 (RPMI-8226 leukemia): < 5 nM | TGI (RPMI-8226 leukemia): < 5 nM | GI50 (PC-3 prostate): < 5 nM | TGI (PC-3 prostate): 5940 nM | GI50 (HCT-116 colon): < 5 nM | TGI (HCT-116 colon): < 5 nM | GI50 (SR leukemia): < 5 nM | TGI (SR leukemia): 219 nM | GI50 (U251 CNS): < 5 nM | TGI (U251 CNS): 2060 nM | GI50 (MDA-MB-231 breast): < 5 nM | TGI (MDA-MB-231 breast): 4640 nM | GI50 (786-0 renal): < 5 nM | TGI (786-0 renal): < 5 nM | GI50 (NCI-H23 lung): < 5 nM | TGI (NCI-H23 lung): 4290 nM | GI50 (SW-620 colon): < 5 nM | TGI (SW-620 colon): 3180 nM | GI50 (NCI-H226 lung): < 5 nM | TGI (NCI-H226 lung): < 5 nM | GI50 (SNB-75 CNS): < 5 nM | TGI (SNB-75 CNS): 77.3 nM | GI50 (SF-539 CNS): < 5 nM | TGI (SF-539 CNS): < 5 nM | GI50 (EKVX NSCLC): < 5 nM | TGI (EKVX NSCLC): 8330 nM | GI50 (OVCAR-3 ovarian): < 5 nM | TGI (OVCAR-3 ovarian): 6300 nM | GI50 (HOP-92 NSCLC): < 5 nM | TGI (HOP-92 NSCLC): < 5 nM | GI50 (NCI-H460 lung): < 5 nM | TGI (NCI-H460 lung): 53.3 nM | GI50 (NCI/ADR-RES ovarian): < 5 nM | TGI (NCI/ADR-RES ovarian): 1370 nM | GI50 (SNB-19 CNS): < 5 nM | TGI (SNB-19 CNS): 3500 nM | GI50 (KM12 colon): < 5 nM | TGI (KM12 colon): 5170 nM | GI50 (SK-MEL-2 melanoma): < 5 nM | TGI (SK-MEL-2 melanoma): 3030 nM | GI50 (COLO 205 colon): < 5 nM | TGI (COLO 205 colon): < 5 nM | GI50 (M14 melanoma): < 5 nM | TGI (M14 melanoma): < 5 nM | GI50 (HCC-2998 colon): < 5 nM | TGI (HCC-2998 colon): < 5 nM | GI50 (UO-31 renal): < 5 nM | TGI (UO-31 renal): 214 nM | GI50 (IGROV1 ovarian): 92.6 nM | TGI (IGROV1 ovarian): 7880 nM | GI50 (BT-549 breast): < 5 nM | TGI (BT-549 breast): < 5 nM | GI50 (DU-145 prostate): < 5 nM | TGI (DU-145 prostate): 5710 nM | GI50 (MOLT-4 leukemia): < 5 nM | TGI (MOLT-4 leukemia): < 5 nM | GI50 (SF-295 CNS): < 5 nM | TGI (SF-295 CNS): 7490 nM | GI50 (NCI-H522 lung): < 5 nM | TGI (NCI-H522 lung): 81.7 nM | GI50 (RXF 393 renal): < 5 nM | TGI (RXF 393 renal): 71.1 nM | GI50 (A549 NSCLC): < 5 nM | TGI (A549 NSCLC): 7020 nM | GI50 (A498 renal): < 5 nM | TGI (A498 renal): < 5 nM | GI50 (SN12C renal): < 5 nM | TGI (SN12C renal): 4320 nM | GI50 (TK-10 renal): < 5 nM | TGI (TK-10 renal): 10700 nM | GI50 (MALME-3M melanoma): < 5 nM | TGI (MALME-3M melanoma): 253 nM | GI50 (UACC-257 melanoma): < 5 nM | TGI (UACC-257 melanoma): 8900 nM | GI50 (SF-268 CNS): < 5 nM | TGI (SF-268 CNS): 2190 nM | GI50 (T-47D breast): < 5 nM | TGI (T-47D breast): 6180 nM | GI50 (HOP-62 NSCLC): < 5 nM | TGI (HOP-62 NSCLC): 874 nM | GI50 (SK-MEL-28 melanoma): < 5 nM | TGI (SK-MEL-28 melanoma): 75.7 nM | GI50 (LOX IMVI melanoma): < 5 nM | TGI (LOX IMVI melanoma): 584 nM | GI50 (SK-OV-3 ovarian): < 5 nM | TGI (SK-OV-3 ovarian): 6500 nM
